In one test the target is T1, Human recombinant PDE4B2 (Homo sapiens, UniProt Q07343).
T1 construct: purchased BPS Bioscience
Nature of the test: Inhibition of PDE4B4 enzyme activity (PDE Glo Assay). The test is classed as biochemical. Conditions: human recombinant PDE4B2, 50 nM cAMP; read-out: PDE4 IC50. The protocol:
Biological Examples Inhibition of PDE4B4 Enzyme Activity
The inhibitory activity of test compounds were determined using the PDE Glo Assay (Promega, V1361). The PDE-Glo Reaction Buffer was prepared (1 mL 5× buffer+4 mL water) and 150 nM solution of test compound dissolved in the Reaction Buffer, followed by 1:3 serial dilutions into Reaction Buffer. […] Human recombinant PDE4B2 (BPS Bioscience) was added to test compound in Reaction Buffer at a concentration of 0.12 nM per reaction. The enzyme and test compound were pre-incubated together at rt for 10 min. 50 nM of the enzyme substrate cAMP was then added to initiate the enzyme reaction, with the reaction terminated after one hour. Termination Buffer (1 mL 5× termination buffer+3.9 mL water+100 μL of 100 mM IBMX (ICN Chemicals, in DMSO)), was added to each reaction well to terminate the reaction. Detection Buffer (1 mL 5×PDE-Glo Detection buffer+3.96 mL water+40 μL PKA (supplied in kit)) was added to the cAMP-enzyme-test compound mix and this secondary reaction proceeded for 20 minutes at rt. An equal volume of Kinase Glo Reagent was then added to the reaction mixture and after 10 min luminescence was measured using a luminometer (EnVision, 0.1 sec read for luminescence). Luminescence values were […] related to levels of cAMP in the reaction mixture. Data were plotted as relative light units (RLU) versus test compound concentration and the IC50 determined using GraphPad Prism 5.0, using a nonlinear curve fit in a single-site binding model.
IC50 determinations for the compounds presented above are seen in the first column of Table 1 (PDE4IC50).

The target in test [1] is T2, human recombinant beta-2 adrenoreceptors (Homo sapiens, UniProt P07550).
T2 construct: expressed in transfected cells; host or cells: CHO cells
T2 sequence (P07550 whole entry): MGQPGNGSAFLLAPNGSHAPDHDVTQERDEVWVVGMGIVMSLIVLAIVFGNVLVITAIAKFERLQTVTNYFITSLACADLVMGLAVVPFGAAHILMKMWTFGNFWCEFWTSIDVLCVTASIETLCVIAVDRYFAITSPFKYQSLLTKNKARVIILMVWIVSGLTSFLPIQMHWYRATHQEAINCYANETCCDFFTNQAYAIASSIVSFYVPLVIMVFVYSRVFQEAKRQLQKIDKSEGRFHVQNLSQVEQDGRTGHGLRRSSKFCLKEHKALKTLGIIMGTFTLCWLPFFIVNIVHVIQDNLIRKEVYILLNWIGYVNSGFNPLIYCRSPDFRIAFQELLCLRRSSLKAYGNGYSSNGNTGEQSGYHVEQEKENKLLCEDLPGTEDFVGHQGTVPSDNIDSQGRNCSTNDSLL
Nature of the test: Beta-2 adrenoceptor binding assay ([3H](−)CGP-12177 displacement). Conditions: CHO cells expressing human beta-2 adrenoreceptors, [3H](−)CGP-12177 0.3 nM, 120 min. The protocol: Beta-2 Adrenoceptor Binding Assay
Test compounds were incubated for 120 min with Chinese hamster oocyte (CHO) cells expressing the human recombinant beta-2 adrenoreceptors. Binding of test compounds to the beta-2 adrenoreceptors was determined by measuring the displacement of the radiolabeled ligand [^3H](−)CGP-12177 (0.3 nM) from the receptor measured by a scintillation counting. Concentration response curves were generated for test compounds and the IC50 (molar concentration of the compound which produced 50% inhibition for the maximal response for that compound) was determined. These assays were performed using a protocol based on the original description of the assay by Joseph et al., (2004) Naun.-Sch. Arch. Pharm.; 369:525-532.
IC50 determinations for the compounds presented above are seen in the second column of Table 1 (Beta 2 IC50).

Test [2] has as its target T2, human recombinant beta-2 adrenoreceptors. Nature of the test: Functional agonism of human recombinant beta-2 adrenoreceptors expressed in CHO cells (cAMP HTRF). The test is classed as cell-based. Conditions: CHO cells expressing human beta-2 adrenoreceptors, cAMP elevation, 30 min. The protocol: Functional Agonism of Human Recombinant Beta-2 Adrenoreceptors Expressed in Chinese Hamster Oocytes (CHO)
Test compounds were incubated for 30 min with CHO cells expressing the human recombinant beta-2 adrenoreceptors. Agonism of the receptor was measured by the elevation of intracellular cyclic-AMP over control levels detected using a homogeneous time resolved fluorescence (HTRF) format. Compounds were determined to be “full” or “partial” agonists based on the maximum level of cAMP accumulated compared to the control compound isoproterenol which is a full agonist in this assay system. Concentration response curves were generated for test compounds and the EC50 (molar concentration of the agonist which produced 50% of the maximal response for that compound) was determined. These assays were performed using a protocol based on the original description of the assay by Baker, J. G. (2005) Brit. J. Pharmacol.; 144:317-322.
EC50 determinations for the compounds presented above are seen in the third column of Table 1 (Beta 2 EC50).
(In general: Time-resolved FRET reads energy transfer from a long-lived donor to a nearby acceptor.)

Test [3] deals with LPS-induced TNF-α release from human peripheral blood mononuclear cells (PBMC). Nature of the test: Inhibition of LPS-induced TNF-α release from human PBMC. The test is classed as cell-based. Conditions: LPS 0.4 ng/mL, 6 h, presence or absence of ICI-118551 not given. The text has this: Inhibition of Lipopolysaccharide (LPS)-Induced Tumour Necrosis Factor Alpha (TNF-α) Release from Human Peripheral Blood Mononuclear Cells (PBMC)
Human whole blood was drawn from donors and cell purification initiated within two hours. Peripheral blood mononuclear cells (PBMC) were purified using a standard Ficoll gradient purification technique and aliquoted at a concentration of 100,000 cells/well in 96 well plates. Beta-2 adrenoreceptor agonists are also anti-inflammatory for some immune cells expressing the receptor and in this assay they can inhibit tumor necrosis factor-alpha (TNF-α) production. Therefore PBMC were pre-incubated for 30 min in the presence of the beta-2 adrenoreceptor antagonist ICI-118551 [3-(isopropylamino)-1-[(7-methyl-4-indanyl)oxy]butan-2-ol] (10 μM) to determine the PDE4 directed activity of test compounds, and in the absence of ICI-118551 for the combined PDE4 and beta-2 receptor directed activity. Test compounds were dissolved in DMSO and diluted in buffer (final DMSO concentration of 0.1% v/v) and were then added to the cell suspensions and pre-incubated for a further 1 h at 37° C. LPS solution was then added (0.4 ng/mL) and the cells incubated for a further 6 h. At the end of the incubation period the cell supernatants were collected and TNF-α was measured using a Procarta Cytokine Assay Kit (Affymetrix, Santa Clara, Calif.) according to the manufacturers' instructions. Data were analyzed using MiraiBio Masterplex QT v4.0 software (MasterPlex Version 1.0.1.18 Copyright 2008, Hitachi Software Engineering Co., Ltd) and used to extrapolate Mean Fluorescence Intensity (MFI) into concentrations of TNF-α and mean values from replicate wells were determined. Inhibition curves were plotted using a nonlinear curve fit employing a single-site binding model to determine the IC50 value for each test compound in the presence or absence of ICI-118551 using GraphPad Prism 5 for Windows, version 5.02 (GraphPad Software, San Diego Calif.).
EC50 determinations for the compounds presented above are seen in the fourth column of Table 1 (PBMC TNF EC50).

T1 sequence (Q07343 1-564 isoform Q07343-2): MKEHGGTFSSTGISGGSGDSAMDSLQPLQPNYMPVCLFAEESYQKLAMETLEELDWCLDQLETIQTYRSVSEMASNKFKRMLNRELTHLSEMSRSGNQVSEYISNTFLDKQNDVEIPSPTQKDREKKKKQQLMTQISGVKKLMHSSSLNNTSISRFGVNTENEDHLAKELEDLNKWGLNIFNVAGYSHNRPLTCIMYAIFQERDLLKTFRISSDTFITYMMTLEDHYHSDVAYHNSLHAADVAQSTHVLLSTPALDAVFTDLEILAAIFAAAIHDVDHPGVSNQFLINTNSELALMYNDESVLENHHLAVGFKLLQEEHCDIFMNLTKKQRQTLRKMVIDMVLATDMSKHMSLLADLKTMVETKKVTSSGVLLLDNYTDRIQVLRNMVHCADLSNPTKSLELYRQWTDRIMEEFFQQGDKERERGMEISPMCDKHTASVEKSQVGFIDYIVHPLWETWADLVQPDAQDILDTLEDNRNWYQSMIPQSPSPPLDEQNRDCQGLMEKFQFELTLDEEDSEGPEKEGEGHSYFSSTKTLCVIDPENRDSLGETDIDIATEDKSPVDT

As a reminder, the IC50 is the concentration that inhibits the measured activity by half. One may read the EC50 as the concentration at which the effect is half-maximal. Turning to `COc1cccc(Nc2c(C(N)=O)cnc3c(C)cc(S(=O)(=O)c4cccc(C(=O)NCCCCCCNC[C@H](O)c5ccc(O)c(CO)c5)c4)cc23)c1` [Example 41, (R)-6-[[3-[[6-[[2-Hydroxy-2-[4-hydroxy-3-(hydroxymethyl)phenyl]ethyl]amino]hexyl]carbamoyl]phenyl]sulfonyl]-4-[(3-methoxyphenyl)amino]-8-methylquinoline-3-carboxamide], the IC50 (on Human recombinant PDE4B2; in test [1]) was less than 100 nM in each case. Besides, the EC50 in test [2] and in test [3] was less than 100 nM in each case.
In the case of `COc1cccc(Nc2c(C(N)=O)cnc3c(C)cc(S(=O)(=O)c4cccc(C(=O)Nc5ccc(C#CCCCNC[C@H](O)c6ccc(O)c7c6OCC(=O)N7)cc5)c4)cc23)c1` [Example 32, (R)-6-((3-((4-(5-((2-hydroxy-2-(5-hydroxy-3-oxo-3,4-dihydro-2H-benzo[b][1,4]oxazin-8-yl)ethyl)amino)pent-1-yn-1-yl)phenyl)carbamoyl)phenyl)sulfonyl)-4-((3-methoxyphenyl)amino)-8-methylquinoline-3-carboxamide], the IC50 (on Human recombinant PDE4B2; in test [1]) was less than 100 nM throughout. Moreover, the half-maximal effective concentration (EC50) in test [2] and in test [3] was less than 100 nM each time.
Consider `COc1cccc(Nc2c(C(N)=O)cnc3c(C)cc(S(=O)(=O)c4cccc(C(=O)NCCCCCCNC[C@H](O)c5ccc(O)c(NC=O)c5)c4)cc23)c1` [Example 27, (R)-6-[[3-[[6-[[2-(3-Formamido-4-hydroxyphenyl)-2-hydroxyethyl]amino]hexyl]carbamoyl]phenyl]sulfonyl]-4-((3-methoxyphenyl)amino]-8-methylquinoline-3-carboxamide], for which the IC50 (at Human recombinant PDE4B2; in test [1]) was less than 100 nM in each case. Also, the EC50 in test [2] and in test [3] was less than 100 nM each time.
Take `COc1cccc(Nc2c(C(N)=O)cnc3c(C)cc(S(=O)(=O)c4cccc(C(=O)NCCCCCCNC[C@H](O)c5ccc(O)c6[nH]c(=O)ccc56)c4)cc23)c1` [Example 2, (R)-6-[[3-[[6-[[2-Hydroxy-2-(8-hydroxy-2-oxo-1,2-dihydroquinolin-5-yl)ethyl]amino]hexyl]carbamoyl]phenyl]sulfonyl]-4-((3-methoxyphenyl)amino]-8-methylquinoline-3-carboxamide]: the IC50 (on Human recombinant PDE4B2; in test [1]) was less than 100 nM in each case. Further, the EC50 in test [2] and in test [3] was less than 100 nM throughout.
Regarding `COc1cccc(Nc2c(C(N)=O)cnc3c(C)cc(S(=O)(=O)c4cccc(C(=O)N5CCN(C(=O)c6cccc(CC(C)(C)NC[C@H](O)c7ccc(O)c8[nH]c(=O)ccc78)c6)CC5)c4)cc23)c1` [Example 18, (R)-6-((3-(4-(3-(2-((2-hydroxy-2-(8-hydroxy-2-oxo-1,2-dihydroquinolin-5-yl)ethyl)amino)-2-methylpropyl)benzoyl)piperazine-1-carbonyl)phenyl)sulfonyl)-4-((3-methoxyphenyl)amino)-8-methylquinoline-3-carboxamide], the IC50 (at Human recombinant PDE4B2; in test [1]) was less than 100 nM in each case. Further, the EC50 in test [2] and in test [3] was less than 100 nM in each case.
On to `COc1cccc(Nc2c(C(N)=O)cnc3c(C)cc(S(=O)(=O)c4cccc(C(=O)Nc5ccc(CCCCOCCCCCCNC[C@H](O)c6ccc(O)c7[nH]c(=O)ccc67)cc5)c4)cc23)c1` [Example 38, (R)-6-((3-((4-(4-((6-((2-hydroxy-2-(8-hydroxy-2-oxo-1,2-dihydroquinolin-5-yl)ethyl)amino)hexyl)oxy)butyl)phenyl)carbamoyl)phenyl)sulfonyl)-4-((3-methoxyphenyl)amino)-8-methylquinoline-3-carboxamide], for which the IC50 (on Human recombinant PDE4B2; in test [1]) was less than 100 nM in each case. For the same compound, the 50% effective concentration (EC50) in test [2] and in test [3] was less than 100 nM throughout.
For the compound `COc1cccc(Nc2c(C(N)=O)cnc3c(C)cc(S(=O)(=O)c4cccc(C(=O)Nc5cccc(C#CCCCNC[C@H](O)c6ccc(O)c7[nH]c(=O)ccc67)c5)c4)cc23)c1` [Example 9, (R)-6-((3-((3-(5-((2-hydroxy-2-(8-hydroxy-2-oxo-1,2-dihydroquinolin-5-yl)ethyl)amino)pent-1-yn-1-yl)phenyl)carbamoyl)phenyl)sulfonyl)-4-((3-methoxyphenyl)amino)-8-methylquinoline-3-carboxamide], the IC50 (on Human recombinant PDE4B2; in test [1]) was less than 100 nM each time. The EC50 in test [2] and in test [3] was less than 100 nM in each case.
Turning to `COc1cccc(Nc2c(C(N)=O)cnc3c(C)cc(S(=O)(=O)c4cccc(-c5ccc(CNC[C@H](O)c6ccc(O)c7[nH]c(=O)ccc67)cc5)c4)cc23)c1` [Example 47, (R)-6-((4′-(((2-hydroxy-2-(8-hydroxy-2-oxo-1,2-dihydroquinolin-5-yl)ethyl)amino)methyl)-[1,1′-biphenyl]-3-yl)sulfonyl)-4-((3-methoxyphenyl)amino)-8-methylquinoline-3-carboxamide], the IC50 at Human recombinant PDE4B2 was less than 100 nM; in test [1] it was greater than 300 nM. Moreover, the EC50 in test [2] is greater than 300 nM; in test [3], less than 100 nM.
For the compound `COc1cccc(Nc2c(C(N)=O)cnc3c(C)cc(S(=O)(=O)c4cccc(C(=O)Nc5ccc(CCOCCCCCCNC[C@H](O)c6ccc(O)c7[nH]c(=O)ccc67)cc5)c4)cc23)c1` [Example 39, (R)-6-((3-((4-(2-((6-((2-hydroxy-2-(8-hydroxy-2-oxo-1,2-dihydroquinolin-5-yl)ethyl)amino)hexyl)oxy)ethyl)phenyl)carbamoyl)phenyl)sulfonyl)-4-((3-methoxyphenyl)amino)-8-methylquinoline-3-carboxamide], the IC50 (on Human recombinant PDE4B2; in test [1]) was less than 100 nM throughout. In addition, the EC50 in test [2] and in test [3] was less than 100 nM each time.
For `COc1cccc(Nc2c(C(N)=O)cnc3c(C)cc(S(=O)(=O)c4cccc(C(=O)N5CCC(NC[C@H](O)c6ccc(O)c7[nH]c(=O)ccc67)CC5)c4)cc23)c1` [Example 3, (R)-6-[[3-[[4-[[2-Hydroxy-2-(8-hydroxy-2-oxo-1,2-dihydroquinolin-5-yl)ethyl]amino]piperidine-1-yl]carbonyl)phenyl]sulfonyl]-4-[(3-methoxyphenyl)amino]-8-methylquinoline-3-carboxamide], the values for the IC50 (at Human recombinant PDE4B2; in test [1]) were less than 100 nM and greater than 300 nM, respectively. In addition, the EC50 in test [2] and in test [3] was less than 100 nM throughout.

These data come from patent publication US8394829B2, “Bi-functional quinoline analogs” (Gilead Sciences, Inc., priority 2010, dated 2013).
